In patent publication US10449216B2, “Modulating drug effects against metabotropic glutamate receptor with extracellular calcium” (GEORGIA STATE UNIVERSITY RESEARCH FOUNDATION, INC., priority 2013, dated 2019):

Experiments:
mGluR1α E325I = target: T1, mGluR1α E325I (Rattus norvegicus, UniProt P23385, E325I); experiment: [^3H]-L-Quis binding to membranes of HEK293 cells expressing E325I; conditions: with 300 nM [^3H]-L-Quis, read-out: KD, [Ca^2+]o-binding affinity of mGluR1α
T1 construct: expressed in transfected cells; host or cells: HEK293
T1 sequence (P23385 19-1199 E325I): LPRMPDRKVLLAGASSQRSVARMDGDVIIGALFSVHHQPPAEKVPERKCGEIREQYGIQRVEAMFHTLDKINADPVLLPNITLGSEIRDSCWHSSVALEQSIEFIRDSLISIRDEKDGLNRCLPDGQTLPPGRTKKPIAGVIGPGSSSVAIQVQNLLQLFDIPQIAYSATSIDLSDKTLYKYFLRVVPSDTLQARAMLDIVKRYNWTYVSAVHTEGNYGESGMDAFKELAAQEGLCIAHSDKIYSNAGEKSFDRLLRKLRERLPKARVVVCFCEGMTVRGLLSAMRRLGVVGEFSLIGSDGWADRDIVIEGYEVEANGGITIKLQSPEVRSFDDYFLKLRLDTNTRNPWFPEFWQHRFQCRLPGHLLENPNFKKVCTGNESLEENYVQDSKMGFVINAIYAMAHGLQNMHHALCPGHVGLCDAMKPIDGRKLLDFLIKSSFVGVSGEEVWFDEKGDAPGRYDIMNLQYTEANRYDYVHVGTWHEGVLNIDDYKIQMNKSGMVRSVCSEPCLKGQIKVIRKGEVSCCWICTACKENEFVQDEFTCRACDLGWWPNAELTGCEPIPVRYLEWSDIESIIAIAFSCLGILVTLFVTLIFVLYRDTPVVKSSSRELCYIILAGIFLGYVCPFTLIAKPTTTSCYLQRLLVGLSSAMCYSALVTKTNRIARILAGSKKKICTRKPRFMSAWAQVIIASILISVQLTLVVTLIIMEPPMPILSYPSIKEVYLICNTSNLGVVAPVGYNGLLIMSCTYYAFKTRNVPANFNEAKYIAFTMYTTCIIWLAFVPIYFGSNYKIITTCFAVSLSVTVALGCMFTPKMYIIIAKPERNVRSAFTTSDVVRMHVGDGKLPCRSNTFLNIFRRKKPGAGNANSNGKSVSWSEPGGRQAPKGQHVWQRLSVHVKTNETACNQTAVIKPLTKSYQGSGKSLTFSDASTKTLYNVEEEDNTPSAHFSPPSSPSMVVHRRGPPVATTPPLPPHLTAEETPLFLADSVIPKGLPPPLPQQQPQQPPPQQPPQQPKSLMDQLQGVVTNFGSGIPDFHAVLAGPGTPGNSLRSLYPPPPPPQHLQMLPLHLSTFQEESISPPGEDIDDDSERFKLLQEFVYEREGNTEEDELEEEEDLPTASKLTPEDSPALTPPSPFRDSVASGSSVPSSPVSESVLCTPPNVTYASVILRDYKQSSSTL

WT mGluR1α [1] = target: T2, WT mGluR1α (Rattus norvegicus, UniProt P23385); experiment: Single cell Fura-2 [Ca^2+]i response in HEK293 cells transiently transfected with WT mGluR1α; format: cell-based; conditions: for Response to [Ca^2+]o: Maximal Response / Max. Res. to Ca^2+: normalized to maximal response of WT mGluR1α to L-Glu
T2 construct: expressed in transfected cells; host or cells: HEK293
T2 sequence (P23385 19-1199): as the sequence (P23385 19-1199 E325I) above, with I307E counted along it

mGluR1 = mGluR1 (Rattus norvegicus, UniProt P23385); experiment: Fura-2 intracellular calcium release in mGluR1-transfected HEK293 cells (Example 4); format: cell-based; parameters: expressed in transfected cells; host or cells: HEK293; conditions: 3 mM/6 mM calcium, after wash with 0 mM calcium
Sequence of mGluR1 (P23385 19-1199): as the sequence (P23385 19-1199 E325I) above, with I307E counted along it

mGluR1α D322I = target: T3, mGluR1α D322I (Rattus norvegicus, UniProt P23385, D322I); experiment: [^3H]-L-Quis binding to membranes of HEK293 cells expressing D322I; conditions: in the presence of 30 nM [^3H]-L-Quis, read-out: KD, [Ca^2+]o-binding affinity of mGluR1α
T3 construct: expressed in transfected cells; host or cells: HEK293
T3 sequence (P23385 19-1199 D322I): as the sequence (P23385 19-1199 E325I) above, with D304I, I307E counted along it

mGluR5 = mGluR5 (Rattus norvegicus, UniProt P31424); experiment: Intracellular Ca^2+ response/oscillation in mGluR5 transfected HEK293 cells; format: cell-based; parameters: expressed in transfected cells; host or cells: HEK293; conditions: no other agonist
Sequence of mGluR5 (P31424 21-1203): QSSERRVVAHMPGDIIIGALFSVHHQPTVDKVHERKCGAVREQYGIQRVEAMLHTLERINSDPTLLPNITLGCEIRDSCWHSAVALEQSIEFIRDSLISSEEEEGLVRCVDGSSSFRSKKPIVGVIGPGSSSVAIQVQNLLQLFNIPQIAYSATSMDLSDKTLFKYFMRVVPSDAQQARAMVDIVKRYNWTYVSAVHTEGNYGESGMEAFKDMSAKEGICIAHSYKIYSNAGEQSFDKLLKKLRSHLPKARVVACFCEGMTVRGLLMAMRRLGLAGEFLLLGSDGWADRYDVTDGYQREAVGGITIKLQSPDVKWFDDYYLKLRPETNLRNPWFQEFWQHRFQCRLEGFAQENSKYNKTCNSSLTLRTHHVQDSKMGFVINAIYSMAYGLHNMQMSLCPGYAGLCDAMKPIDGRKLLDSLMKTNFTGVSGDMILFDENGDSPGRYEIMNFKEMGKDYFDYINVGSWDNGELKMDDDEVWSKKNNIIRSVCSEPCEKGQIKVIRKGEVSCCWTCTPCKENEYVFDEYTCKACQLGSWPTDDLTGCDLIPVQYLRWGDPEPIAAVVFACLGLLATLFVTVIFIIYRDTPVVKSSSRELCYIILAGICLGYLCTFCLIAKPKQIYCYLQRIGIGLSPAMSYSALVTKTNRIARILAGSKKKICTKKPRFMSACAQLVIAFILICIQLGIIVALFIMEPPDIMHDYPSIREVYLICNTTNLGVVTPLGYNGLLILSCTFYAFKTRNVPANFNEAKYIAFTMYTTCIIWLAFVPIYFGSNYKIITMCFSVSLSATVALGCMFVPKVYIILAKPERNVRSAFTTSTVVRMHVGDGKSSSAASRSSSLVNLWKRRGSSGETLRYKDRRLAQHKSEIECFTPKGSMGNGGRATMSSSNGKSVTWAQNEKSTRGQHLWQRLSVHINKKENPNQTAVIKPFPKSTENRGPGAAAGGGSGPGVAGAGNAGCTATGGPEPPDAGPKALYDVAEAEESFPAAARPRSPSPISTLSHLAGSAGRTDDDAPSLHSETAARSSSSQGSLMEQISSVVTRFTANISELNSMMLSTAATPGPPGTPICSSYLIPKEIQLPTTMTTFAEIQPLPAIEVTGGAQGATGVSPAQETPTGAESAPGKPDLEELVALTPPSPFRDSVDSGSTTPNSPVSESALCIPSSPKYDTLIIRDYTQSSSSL
Procedure: HEK293 cells were fed on a Dulbecco's Modified Eagle Medium (DMEM) and 10% fetal bovine serum (Invitrogen) and cultured at 37° C. in a humidified incubator with 5% CO2. One day before transfection, HEK293 cells were grown on 22×44 mm coverslips and then were transfected with mGluR5 plasmid (received as a gift from Dr. Randy Hall, Emory University, Atlanta, Ga.) with the aid of lipofectamine 2000 (Invitrogen). mGluR5 transfected HEK293 cells were grown for 48 hours and then loaded with 4 µM Fura-2 AM in loading buffer containing 10 mM HEPES (pH 7.4), 140 mM NaCl, 5 mM KCl, 0.55 mM MgCl2 for 30 minutes at 37° C. The coverslips were then mounted in a bathing chamber on the stage of a fluorescence microscope. […] The ratio of fluorescence emitted at 510 nm resulting from excitation at 340 or 380 nm was analyzed to obtain the [Ca^2+]i response as a function of changes in [Ca^2+]o.
HEK293 cells were cultured and transfected as described above. Intracellular Ca^2+ concentration was recorded using the method as described previously. […]

WT mGluR1α [2] = target: T2, WT mGluR1α; experiment: [^3H]-L-Quis binding to membranes of HEK293 cells expressing WT mGluR1α

Kd (mGluR1α E325I): > 20 mM | Fold increase of the EC50 for [Ca^2+]o (WT mGluR1α [1]; 0 versus 0.5 mM MCPG): ~1.7 fold | EC50 (WT mGluR1α [1]; 40 μM CPCCOEt, read-out: EC50 of mGluR1α for [Ca^2+]o): 28700 µM | Response to [Ca^2+]o: nHill (WT mGluR1α [1]; 0.5 mM (s)-MCPG): 2.6 | Response to [Ca^2+]o: Maximal Response (WT mGluR1α [1]; 0.5 mM (s)-MCPG): 67 ± 2 | EC50 (WT mGluR1α [1]; 0.5 mM (s)-MCPG, read-out: Response to [Ca^2+]o: EC50): 6000 µM | Response to [Ca^2+]o: nHill (WT mGluR1α [1]; (s)-MCPG 0): 6.4 | Response to [Ca^2+]o: Maximal Response (WT mGluR1α [1]; (s)-MCPG 0): 85 ± 2 | EC50 (WT mGluR1α [1]; (s)-MCPG 0, read-out: Response to [Ca^2+]o: EC50): 3500 µM | Response to [Ca^2+]o: nHill (WT mGluR1α [1]; CPCCOEt 0): 6.4 | Response to [Ca^2+]o: Maximal Response (WT mGluR1α [1]; CPCCOEt 0): 85 ± 2% | EC50 (WT mGluR1α [1]; CPCCOEt 0, read-out: Response to [Ca^2+]o: EC50): 3500 µM | Response to [Ca^2+]o: nHill (WT mGluR1α [1]; CPCCOEt Conc. 5 (μM)): 1.3 | Response to [Ca^2+]o: Maximal Response (WT mGluR1α [1]; CPCCOEt Conc. 5 (μM)): 75 ± 3% | EC50 (WT mGluR1α [1]; CPCCOEt Conc. 5 (μM), read-out: Response to [Ca^2+]o: EC50): 7600 µM | Response to [Ca^2+]o: nHill (WT mGluR1α [1]; CPCCOEt Conc. 40 (nM)): 1.1 | Response to [Ca^2+]o: Maximal Response (WT mGluR1α [1]; CPCCOEt Conc. 40 (nM)): 60 ± 3% | Max. Res. to Ca^2+ (WT mGluR1α [1]; Ro 67-4853 0 nM): 85 ± 2 | EC50 (WT mGluR1α [1]; Ro 67-4853 0 nM, read-out: EC50 of Ca^2+): 3500 µM | Max. Res. to Ca^2+ (WT mGluR1α [1]; Ro 67-4853 30 nM): 83 ± 6 | EC50 (WT mGluR1α [1]; Ro 67-4853 30 nM, read-out: EC50 of Ca^2+): 2100 µM | Max. Res. to Ca^2+ (WT mGluR1α [1]; Ro 67-4853 300 nM): 83 ± 2 | EC50 (WT mGluR1α [1]; Ro 67-4853 300 nM, read-out: EC50 of Ca^2+): 700 µM | EC50 (WT mGluR1α [1]; in the presence of 5 μM CPCCOEt, read-out: EC50 of mGluR1α for [Ca^2+]o): 14700 µM | Activation of mGluR1 by calcium alone (mGluR1): no response was observed | Kd (mGluR1α D322I): 600 µM | Extracellular Ca^2+ concentration change that started to induce intracellular oscillation (mGluR5): 0.05 mM | Kd (WT mGluR1α [2]; WT, in the presence of 30 nM [^3H]-L-Quis, read-out: KD, [Ca^2+]o-binding affinity of mGluR1α): 300 µM | EC50 (WT mGluR1α [2]; wild type receptor, read-out: EC50 of [Ca^2+]o for enhancing L-Quis-binding): ~300 µM
SMILES: [Ca+2] [[Ca^2+]o]
